The source of these data is publication PMC11304990, “Identification of mitochondrial ATP synthase as the cellular target of Ru-polypyridyl-β-carboline complexes by affinity-based protein profiling” (National Science Review, 2024).

In series [1] the test system is lung adenocarcinoma (A549). As to the kind of experiment: MTT antiproliferative assay, A549. Type of series: cell-based, human. The conditions noted are these: for SI (selectivity index): SI = (IC50 for HLF)/(IC50 for A549); for IC50: 72 h. The source says: (§1) Ru3–Ru9 also show a certain selectivity for cancer cells over normal cells, and Ru2, Ru3, Ru5 and Ru9 show higher selectivity index (SI) values than the other complexes.
(§2) PA-BPP was then used to confirm the molecular targets of Ru5 by modifying it with a ‘minimalist’ biorthogonal handle-containing photo-cross-linker. Through our structure–activity relationship analysis and comparison with other ruthenium complexes utilizing phen as the auxiliary ligands with similar coordination structures (using cisplatin as a control), we propose that the β-carboline ligands play an important role in antiproliferative activity. To maintain the binding characteristics of the β-carboline moiety with the targeted biomolecules, we linked the photo-cross-linker to one of the auxiliary ligands of Ru5.
(Tetrazolium assays rely on reduction of a dye to a coloured formazan, in cell work by metabolically active cells.)

The nature of series [2]: Aqueous solubility by concentration-absorbance linearity. It is filed as physicochemical. As to conditions: PBS with 1% DMSO.
Excerpt: Subsequently, the lipophilicity and aqueous solubility of Ru1–Ru9 were investigated.
Series [3] addresses ATPase (mitochondrial ATP synthase). Kind of series: Inhibition of the enzymatic activity of ATPase in vitro. Type of series: biochemical. As to conditions: read-out: Inhibition constant (Ki). The protocol:
(§3) Figure 1. Validation of ATP5F1 as the molecular target of Ru5. (A) Proteins pulled down by streptavidin from A549 cells treated with Ru5a followed by PAL. The cells were treated with Ru5a (50 μM) for 12 h and irradiated with UV light for 20 min. (B) The top five peptides enriched by Ru5a-mediated PAL were identified with the assistance of SILAC-based chemoproteomic studies. H1F0: H1 histone family member 0; HIST4H4: histone cluster 4 H4; HIST3H2BB: histone cluster 3 H2B family member b; ATP5F1E: ATP synthase F1 subunit epsilon; HIST1H2AJ: histone cluster 1 H2A family member J. (C) Pull-down western blotting analysis of ATPase in A549 cells treated with Ru5a. (D) Cellular Ru content in cells treated with Ru5/Ru5a (20 μM, 12 h) measured by ICP-MS. (E) Impact of Ru5/Ru5a (10 μM) on the thermal stability of ATP5F1 measured by CETSA. (F) Impact on the anticancer activities of Ru5/Ru5a against wild type and ATPase knocking down (by siRNA) A549 cells. The relative cellular viability was calculated using the cells without drug treatment in each group as the control group. (G) Inhibition of Ru5/Ru5a on the enzymatic activity of ATPase. (-)-blebbistatin was used as the positive control. (H) Molecular docking of Ru5 with ATPase (PDB: 3ZIA). The red dashes indicate the hydrogen bonds formed between Ru5 and the amino acid residues (SER38 and GLN39). The yellow dashes indicate the hydrophobic interaction between Ru5 and the amino acid residues (ASN15 and GLN19). Data are presented as means ± SD from three independent experiments. TEXT PRINTED IN THE PICTURE: (B) Ru5a: Log2 (fold change) (Ru5a/DMSO): 1.43 (Protein name: H1F0); Log2 (fold change) (Ru5a/DMSO): 1.23 (Protein name: HIST4H4); Log2 (fold change) (Ru5a/DMSO): 1.22 (Protein name: HIST3H2BB); Log2 (fold change) (Ru5a/DMSO): 1.21 (Protein name: ATP5F1E); Log2 (fold change) (Ru5a/DMSO): 1.12 (Protein name: HIST1H2AJ) DOUBTS OF THE COPYIST ABOUT THIS PICTURE: Panel B: the table rows are proteins enriched by Ru5a, not separate substances. […]

The subject of series [4] is triple negative breast cancer (MDA-MB-231). Kind of series: MTT antiproliferative assay, MDA-MB-231. It is filed as cell-based, human. The conditions noted are these: 72 h.
Excerpt: as §1, §2

Series [5] relates to human lung fibroblast-like (HLF) cells. Kind of series: MTT antiproliferative assay, HLF. As to conditions: 72 h. Type of series: cell-based.
Excerpt: as §1, §2

Series [6] has as its system cisplatin-resistant A549R. Kind of series: MTT antiproliferative assay, A549R. The conditions noted are these: 72 h. Type of series: cell-based, human.
Excerpt: as §1, §2

A further series concerns prostate cancer (PC3). Kind of series: MTT antiproliferative assay, PC3. As to conditions: 72 h. It is filed as cell-based, human.
Excerpt: as §1, §2

Series [7] deals with cervical carcinoma (HeLa). Kind of series: MTT antiproliferative assay, HeLa. Type of series: cell-based, human. The conditions noted are these: 72 h.
Excerpt: as §1, §2

For the next series, the system named is malignant glioma (U87). Kind of series: MTT antiproliferative assay, U87. Type of series: cell-based, human. The conditions noted are these: 72 h.
Excerpt: as §1, §2

The subject of a further series is A549 xenograft. Kind of series: A549 xenograft nude mice model. Type of series: in vivo. The conditions noted are these: 5 mg kg−1, intratumoral injection every 7 days, 14 days, compared with the control groups. Here is the method:
Lastly, the in vivo anticancer activity of Ru5 was assessed via a A549 xenograft nude mice model (Fig. 5A). Mice were treated with PBS, cisplatin (5 mg kg^−1) or Ru5 (5 mg kg^−1) for 14 days, during which body weights and tumor volumes were monitored.
Figure 5. […] (A) Schematic illustration of in vivo therapeutic protocol. (B) Graphs of tumor volumes of nude mice after treatment with Ru5 (5 mg kg^−1), cisplatin (5 mg kg^−1) and PBS. The intratumoral injections were performed every 7 days. Data are presented as means ± SD, n = 5. (C) Immunohistochemical analysis of hematoxylin-eosin (H&E) staining in tumor sections from mice with different treatments. Scale bar: 50 μm. (D) Tumors separated from nude mice. (E) The average body weight of the mice in each group during the treatment process. Data are presented as means ± SD, n = 5. (F) H&E staining of the main organs from mice with different treatments. Scale bar: 100 μm.

The test system of the next series is mitochondria. Kind of series: Subcellular Ru content by ICP-MS. It is filed as cell-based. As to conditions: 20 μM, 12 h. The protocol: as §3, with “GLN39).” for “GLN39). The yellow dashes indicate the hydrophobic interaction between Ru5 and the amino acid residues (ASN15 and GLN19). Data are presented as means ± SD from three independent experiments. TEXT PRINTED IN THE PICTURE: (B) Ru5a: Log2 (fold change) (Ru5a/DMSO): 1.43 (Protein name: H1F0); Log2 (fold change) (Ru5a/DMSO): 1.23 (Protein name: HIST4H4); Log2 (fold change) (Ru5a/DMSO): 1.22 (Protein name: HIST3H2BB); Log2 (fold change) (Ru5a/DMSO): 1.21 (Protein name: ATP5F1E); Log2 (fold change) (Ru5a/DMSO): 1.12 (Protein name: HIST1H2AJ) DOUBTS OF THE COPYIST ABOUT THIS PICTURE: Panel B: the table rows are proteins enriched by Ru5a, not separate substances.”

For a further series, the system named is ATP5F1. Kind of series: Cellular thermal shift assay (CETSA). Type of series: cell-based. The conditions noted are these: 10 μM. The protocol: as §3, with “GLN39).” for “GLN39). The yellow dashes indicate the hydrophobic interaction between Ru5 and the amino acid residues (ASN15 and GLN19). Data are presented as means ± SD from three independent experiments. TEXT PRINTED IN THE PICTURE: (B) Ru5a: Log2 (fold change) (Ru5a/DMSO): 1.43 (Protein name: H1F0); Log2 (fold change) (Ru5a/DMSO): 1.23 (Protein name: HIST4H4); Log2 (fold change) (Ru5a/DMSO): 1.22 (Protein name: HIST3H2BB); Log2 (fold change) (Ru5a/DMSO): 1.21 (Protein name: ATP5F1E); Log2 (fold change) (Ru5a/DMSO): 1.12 (Protein name: HIST1H2AJ) DOUBTS OF THE COPYIST ABOUT THIS PICTURE: Panel B: the table rows are proteins enriched by Ru5a, not separate substances.”

A further series concerns A549 cells. Kind of series: Anticancer activity in wild type vs ATPase siRNA knockdown cells. As to conditions: compared to wild-type cells. It is filed as cell-based, human. The protocol:
as §3, with “GLN39).” for “GLN39). The yellow dashes indicate the hydrophobic interaction between Ru5 and the amino acid residues (ASN15 and GLN19). Data are presented as means ± SD from three independent experiments. TEXT PRINTED IN THE PICTURE: (B) Ru5a: Log2 (fold change) (Ru5a/DMSO): 1.43 (Protein name: H1F0); Log2 (fold change) (Ru5a/DMSO): 1.23 (Protein name: HIST4H4); Log2 (fold change) (Ru5a/DMSO): 1.22 (Protein name: HIST3H2BB); Log2 (fold change) (Ru5a/DMSO): 1.21 (Protein name: ATP5F1E); Log2 (fold change) (Ru5a/DMSO): 1.12 (Protein name: HIST1H2AJ) DOUBTS OF THE COPYIST ABOUT THIS PICTURE: Panel B: the table rows are proteins enriched by Ru5a, not separate substances.”

Turning to `F[P-](F)(F)(F)(F)F.F[P-](F)(F)(F)(F)F.[Ru+2].c1ccc(-c2ccnc3c2ccc2c(-c4ccccc4)ccnc23)cc1.c1ccc(-c2ccnc3c2ccc2c(-c4ccccc4)ccnc23)cc1.c1ccc2nc(-c3nccc4c3[nH]c3ccccc34)ccc2c1` [Ru3], the “SI (selectivity index)” value in series [1] is “higher”. Moreover, the Highest solubility entry in [2] is reported as “lower than 40 μM”.

For orientation: Ki means a measure of affinity in units of concentration, obtained from inhibition or displacement. Turning to `Cc1ccc2c(c1)C(=O)C1(O)CCN(c3ccccc3)C1=N2` (single isomer, unassigned; (-)) [(-)-blebbistatin, reference compound], the Ki in [3] stood at 3.3 ± 0.5 µM.

In the case of `F[P-](F)(F)(F)(F)F.F[P-](F)(F)(F)(F)F.[Ru+2].c1ccc2[nH]c(-c3nccc4c3[nH]c3ccccc34)nc2c1.c1cnc2c(c1)ccc1cccnc12.c1cnc2c(c1)ccc1cccnc12` [Ru8], the “Linear relationship between absorbance and concentration up to” value in series [2] was “at least 100 μM”.

In the case of `F[P-](F)(F)(F)(F)F.F[P-](F)(F)(F)(F)F.[Ru+2].c1ccc2nc(-c3nccc4c3[nH]c3ccccc34)ccc2c1.c1cnc2c(c1)ccc1cccnc12.c1cnc2c(c1)ccc1cccnc12` [Ru2], the “SI (selectivity index)” value in series [1] is on record as “higher”. In series [2], the “Linear relationship between absorbance and concentration up to” value is listed as “at least 100 μM”.

For orientation: IC50 means the concentration at which inhibition is half-maximal. Read a high IC50 as weaker potency. Turning to `N.N.[Cl][Pt][Cl]` [Cisplatin, reference compound], the IC50 came out at 9 ± 0.2 µM in series [4]; 15.4 ± 1.1 µM in [5]; 28.1 ± 4.2 µM in [6]; 13.1 ± 2.7 µM with prostate cancer (PC3); 5.9 ± 1 µM in [1]; 10.3 ± 1.3 µM in series [7]. The IC50 with malignant glioma (U87) was found to be 14.8 ± 1.2 µM. Moreover, in series [1], the “SI (selectivity index)” value came to 2.6. The “Tumor growth inhibitory rate” value in the series with A549 xenograft is listed as around 74.4%.

With `F[P-](F)(F)(F)(F)F.F[P-](F)(F)(F)(F)F.[Ru+2].c1ccc(-c2ccnc3c2ccc2c(-c4ccccc4)ccnc23)cc1.c1ccc(-c2ccnc3c2ccc2c(-c4ccccc4)ccnc23)cc1.c1ccc2c(c1)[nH]c1c(-c3ncc[nH]3)nccc12` [Ru6], the Highest solubility entry in series [2] was “lower than 40 μM”.

Turning to `C#CCCC1(CCNC(=O)c2cc3cccnc3c3ncccc23)N=N1.F[P-](F)(F)(F)(F)F.F[P-](F)(F)(F)(F)F.[Ru+2].c1ccc2c(c1)[nH]c1c(-c3ncc[nH]3)nccc12.c1cnc2c(c1)ccc1cccnc12` [Ru5a], in the series with mitochondria, the “Subcellular location (cellular Ru content)” value was “mainly located in mitochondria”. Also, the IC50 in series [4] was determined as 8.4 ± 0.6 µM; in series [5] it was 23.2 ± 0.3 µM; in series [6], 4.2 ± 0.6 µM; in the series on prostate cancer (PC3), 3.4 ± 0.6 µM; in series [1] it was 2.5 ± 0.4 µM; in series [7], 3.8 ± 0.1 µM. Besides, in the series with malignant glioma (U87), the IC50 worked out at 13.4 ± 0.4 µM. Besides, the “Thermal stability of ATP5F1” value in the series with ATP5F1 was “increased”. For the same molecule, the Ki in [3] amounted to 8.1 ± 1.5 µM. In addition, the “SI (selectivity index)” value in series [1] amounted to 9.3. Also, the “Effect of siRNA-mediated knockdown of ATPase on anticancer effects” value with A549 cells is reported as “alleviates”.

`F[P-](F)(F)(F)(F)F.F[P-](F)(F)(F)(F)F.[Ru+2].c1ccc(-c2ccnc3c2ccc2c(-c4ccccc4)ccnc23)cc1.c1ccc(-c2ccnc3c2ccc2c(-c4ccccc4)ccnc23)cc1.c1ccc2[nH]c(-c3nccc4c3[nH]c3ccccc34)nc2c1` [Ru9]: the “SI (selectivity index)” value in series [1] is reported as “higher”. The Highest solubility result in series [2] is recorded as “lower than 40 μM”.
